Source: patent US20240018161A1, “MODULATORS OF CYSTIC FIBROSIS TRANSMEMBRANE CONDUCTANCE REGULATOR” (VERTEX PHARMACEUTICALS INCORPORATED, priority 2020, published 2024)
Like-named read-outs stand apart in the source and are kept apart here.

Molecular target: CFTR-mediated chloride transport in human intestinal epithelial enteroid cells (Homo sapiens, UniProt P13569)
Assay: Membrane potential dye, Enteroid Assay A
Type: cell-based
Details: for EC50: read-out: Ent. A EC50
Description: Base medium (ADF+++) consisted of Advanced DMEM/Ham's F12, 2 mM Glutamax, 10 mM HEPES, […] penicillin/streptomycin.
Bath 1 Buffer consisted of 1 mM MgCl2, 160 mM NaCl, 4.5 mM KCl, 10 mM HEPES, 10 mM Glucose, 2 mM CaCl2.
Chloride Free Buffer consisted of 1 mM Magnesium Gluconate, 2 mM Calcium Gluconate, 4.5 mM Potassium Gluconate, 160 mM Sodium Gluconate, 10 mM HEPES, 10 mM Glucose.
Bath1 Dye Solution consisted of Bath 1 Buffer, 0.04% Pluronic F127, 20 μM Methyl Oxonol, 30 μM CaCCinh-A01, 30 μM Chicago Sky Blue.
Chloride Free Dye Solution consisted of Chloride Free Buffer, 0.04% Pluronic F127, 20 μM Methyl Oxonol, 30 μM CaCCinh-A01, 30 μM Chicago Sky Blue.
3. Enteroid Cell Harvesting and Seeding
Cells were recovered in cell recovery solution, collected by centrifugation at 650 rpm for 5 min at 4° C., resuspended in TryPLE and incubated for 5 min at 37° C. Cells were then collected by centrifugation at 650 rpm for 5 min at 4° C. and resuspended in IEMM containing 10 μM ROCK inhibitor (RI).
4. Membrane Potential Dye, Enteroid Assay A
Briefly, cells were washed 5 times in Bath 1 Buffer. Bath 1 Dye Solution was added, and the cells were incubated for 25 min at room temperature. Following dye incubation, cells were washed 3 times in Chloride Free Dye Solution. Chloride transport was initiated by addition of Chloride Free Dye Stimulation Solution and the fluorescence signal was read for 15 min. […] Chloride transport was then expressed as a percentage of the chloride transport following treatment with 3 μM N-[(6-amino-2-pyridyl)sulfonyl]-6-(3-fluoro-5-isobutoxy-phenyl)-2-[(4S)-2,2,4-trimethylpyrrolidin-1-yl]pyridine-3-carboxamide, 3 μM (R)-1-(2,2-difluorobenzo[d][1,3]dioxol-5-yl)-N-(1-(2,3-dihydroxypropyl)-6-fluoro-2-(1-hydroxy-2-methylpropan-2-yl)-1H-indol-5-yl)cyclopropanecarboxamide and 300 nM acute N-[2,4-bis(1,1-dimethylethyl)-5-hydroxyphenyl]-1,4-dihydro-4-oxoquinoline-3-carboxamide triple combination control (% Activity).

[1] = percentage of chloride transport of triple combination control (3 μM N-[(6-amino-2-pyridyl)sulfonyl]-6-(3-fluoro-5-isobutoxy-phenyl)-2-[(4S)-2,2,4-trimethylpyrrolidin-1-yl]pyridine-3-carboxamide based)

Sequence of CFTR-mediated chloride transport in human intestinal epithelial enteroid cells (P13569 with tags, fused parts or gaps DEL508-508): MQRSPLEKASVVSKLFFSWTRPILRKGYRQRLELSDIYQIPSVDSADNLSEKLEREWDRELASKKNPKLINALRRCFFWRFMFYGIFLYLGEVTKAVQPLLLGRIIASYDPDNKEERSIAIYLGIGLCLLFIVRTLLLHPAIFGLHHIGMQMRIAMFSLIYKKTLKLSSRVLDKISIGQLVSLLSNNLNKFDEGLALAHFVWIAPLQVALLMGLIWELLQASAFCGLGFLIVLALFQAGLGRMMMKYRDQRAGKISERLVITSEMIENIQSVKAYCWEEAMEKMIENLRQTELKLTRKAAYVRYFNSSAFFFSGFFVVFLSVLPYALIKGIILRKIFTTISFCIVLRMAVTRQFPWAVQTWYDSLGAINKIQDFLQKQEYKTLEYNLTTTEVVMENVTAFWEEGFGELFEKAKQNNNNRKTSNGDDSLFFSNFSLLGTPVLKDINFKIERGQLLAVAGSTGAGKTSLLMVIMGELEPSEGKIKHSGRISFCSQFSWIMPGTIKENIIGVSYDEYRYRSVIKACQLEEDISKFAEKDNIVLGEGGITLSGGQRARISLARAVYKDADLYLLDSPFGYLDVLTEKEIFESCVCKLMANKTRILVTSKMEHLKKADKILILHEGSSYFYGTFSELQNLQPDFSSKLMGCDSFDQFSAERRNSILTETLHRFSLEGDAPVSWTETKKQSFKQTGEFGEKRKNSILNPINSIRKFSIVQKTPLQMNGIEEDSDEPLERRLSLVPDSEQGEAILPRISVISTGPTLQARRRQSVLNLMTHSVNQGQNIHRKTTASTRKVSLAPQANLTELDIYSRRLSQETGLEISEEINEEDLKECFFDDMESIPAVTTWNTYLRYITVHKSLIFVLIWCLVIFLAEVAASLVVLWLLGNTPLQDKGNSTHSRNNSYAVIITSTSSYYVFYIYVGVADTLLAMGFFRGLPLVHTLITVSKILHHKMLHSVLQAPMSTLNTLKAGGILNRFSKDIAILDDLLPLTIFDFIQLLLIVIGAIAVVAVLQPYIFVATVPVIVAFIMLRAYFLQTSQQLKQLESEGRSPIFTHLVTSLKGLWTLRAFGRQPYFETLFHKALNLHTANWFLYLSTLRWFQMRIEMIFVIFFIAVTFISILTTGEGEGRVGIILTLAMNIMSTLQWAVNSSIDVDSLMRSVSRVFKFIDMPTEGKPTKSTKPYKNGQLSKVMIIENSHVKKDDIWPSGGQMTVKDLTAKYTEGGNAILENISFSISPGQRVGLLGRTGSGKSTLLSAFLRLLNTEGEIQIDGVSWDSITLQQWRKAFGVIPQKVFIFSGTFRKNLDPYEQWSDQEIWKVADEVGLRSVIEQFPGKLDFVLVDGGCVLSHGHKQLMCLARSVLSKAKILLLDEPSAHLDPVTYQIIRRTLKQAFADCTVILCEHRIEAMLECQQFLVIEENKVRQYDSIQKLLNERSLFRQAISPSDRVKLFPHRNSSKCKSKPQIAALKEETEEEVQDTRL

Compound | Ent. A Max Activity (%) (Enteroid Assay A) | EC50 (Enteroid Assay A) | Ent. A Max Activity (%) [1] | EC50 (enteroid cells incubated with test compound 18-24 hours, acute 10 μM forskolin and 300 nM N-[2,4-bis(1,1-dimethylethyl)-5-hydroxyphenyl]-1,4-dihydro-4-oxoquinoline-3-carboxamide)
Cc1cccc(C)c1-c1cc2nc(n1)NS(=O)(=O)c1cccc(c1)C(=O)N1CCN(C3CCC3(C)C)C[C@H](C1)O2 (single isomer, unassigned) [Compound 9] | +++ (+++ is >600%) | < 1000 nM | – | –
Cc1cccc(C)c1-c1cc2nc(n1)NS(=O)(=O)c1cccc(c1)C(=O)N1CCN(C3CCC3(C)C)C[C@H](C1)O2 (single isomer, unassigned) [Compound 10] | +++ (+++ is >600%) | < 1000 nM | – | –
Cc1cccc(C)c1-c1cc2nc(n1)NS(=O)(=O)c1cccc(c1)C(=O)N1CCN(C3CCC(C)(C)C3)C[C@H](C1)O2 (single isomer, unassigned) [Compound 36] | +++ (+++ is >600%) | < 1000 nM | – | –
Cc1cccc(C)c1-c1cc2nc(n1)NS(=O)(=O)c1cccc(c1)C(=O)N1CCN(C3CCC(C)(C)C3)C[C@H](C1)O2 (single isomer, unassigned) [Compound 37] | +++ (+++ is >600%) | < 1000 nM | – | –
Cc1cccc(C)c1-c1cc2nc(n1)NS(=O)(=O)c1cccc(c1)C(=O)N1CCN([C@H]3CC[C@@H](F)CC3)C[C@H](C1)O2 (single isomer, unassigned) [Compound 38] | +++ (+++ is >600%) | < 1000 nM | – | –
Cc1cccc(C)c1-c1cc2nc(n1)NS(=O)(=O)c1cccc(c1)C(=O)N1CCN([C@H]3CC[C@@H](F)CC3)C[C@H](C1)O2 (single isomer, unassigned) [Compound 39] | +++ (+++ is >600%) | 1000 to 3000 nM | – | –
Cc1cccc(C)c1-c1cc2nc(n1)NS(=O)(=O)c1cccc(c1)C(=O)N1CCN(CCC3(C(F)(F)F)CC3)CC(C1)O2 (single isomer, unassigned) [Compound 69, 12-(2,6-Dimethylphenyl)-18-{2-[1-(trifluoromethyl)cyclopropyl]ethyl}-15-oxa-8λ^6-thia-1,9,11,18,22-pentaazatetracyclo[14.4.1.13,7.110,14]tricosa-3(23),4,6,10(22),11,13-hexaene-2,8,8-trione] | +++ (+++ is >600%) | < 1000 nM | – | –
Cc1cccc(C)c1-c1cc2nc(n1)NS(=O)(=O)c1cccc(c1)C(=O)N1CCN([C@@H](C)C(C)(C)C)C[C@H](C1)O2 (single isomer, unassigned) [Compound 72] | +++ (+++ is >600%) | < 1000 nM | – | –
Cc1cccc(C)c1-c1cc2nc(n1)NS(=O)(=O)c1cccc(c1)C(=O)N1CCN([C@@H](C)C(C)(C)C)C[C@H](C1)O2 (single isomer, unassigned) [Compound 73] | +++ (+++ is >600%) | < 1000 nM | – | –
Cc1cccc(C)c1-c1cc2nc(n1)NS(=O)(=O)c1cccc(c1)C(=O)N1CCN(Cc3ccccc3)C[C@H](O2)[C@@H]1CC(C)C (single isomer, unassigned) [Compound 87] | ++ (++ is 30-60%) | < 1000 nM | – | –
Cc1cccc(C)c1-c1cc2nc(n1)NS(=O)(=O)c1cccc(c1)C(=O)N1CCN(Cc3ccccc3)CC(O2)C1CC(C)C (single isomer, unassigned) [Compound 88, 18-Benzyl-12-(2,6-dimethylphenyl)-21-(2-methylpropyl)-15-oxa-8λ^6-thia-1,9,11,18,22-pentaazatetracyclo[14.4.1.13,7.110,14]tricosa-3(23),4,6,10(22),11,13-hexaene-2,8,8-trione] | ++ (++ is 30-60%) | < 1000 nM | – | –
Cc1cccc(C)c1-c1cc2nc(n1)NS(=O)(=O)c1cccc(c1)C(=O)N1CCN(Cc3ccccc3)CC(O2)C1CC(C)C (single isomer, unassigned) [Compound 89, 18-benzyl-12-(2,6-dimethylphenyl)-21-(2-methylpropyl)-15-oxa-8λ^6-thia-1,9,11,18,22-pentaazatetracyclo[14.4.1.13,7.110,14]tricosa-3(23),4,6,10(22),11,13-hexaene-2,8,8-trione] | +++ (+++ is >600%) | < 1000 nM | – | –
Cc1cccc(C)c1-c1cc2nc(n1)NS(=O)(=O)c1cccc(c1)C(=O)N1CCN(Cc3ccccc3)CC(O2)C1CC(C)C (single isomer, unassigned) [Compound 90, 18-Benzyl-12-(2,6-dimethylphenyl)-21-(2-methylpropyl)-15-oxa-8λ^6-thia-1,9,11,18,22-pentaazatetracyclo[14.4.1.13,7.110,14]tricosa-3(23),4,6,10(22),11,13-hexaene-2,8,8-trione] | +++ (+++ is >600%) | < 1000 nM | – | –
Cc1cccc(C)c1-c1cc2nc(n1)NS(=O)(=O)c1cccc(c1)C(=O)N1CCNCC(O2)C1CC(C)C (single isomer, unassigned) [Compound 91, 12-(2,6-Dimethylphenyl)-21-(2-methylpropyl)-15-oxa-8λ^6-thia-1,9,11,18,22-pentaazatetracyclo[14.4.1.13,7.110,14]tricosa-3(23),4,6,10(22),11,13-hexaene-2,8,8-trione] | +++ (+++ is >600%) | 1000 to 3000 nM | – | –
Cc1cccc(C)c1-c1cc2nc(n1)NS(=O)(=O)c1cccc(c1)C(=O)N1CCN(CCC(C)(C)C)CC(O2)C1CC(C)C (single isomer, unassigned) [Compound 92, 18-(3,3-Dimethylbutyl)-12-(2,6-dimethylphenyl)-21-(2-methylpropyl)-15-oxa-8λ^6-thia-1,9,11,18,22-pentaazatetracyclo[14.4.1.13,7.110,14]tricosa-3(23),4,6,10(22),11,13-hexaene-2,8,8-trione] | +++ (+++ is >600%) | < 1000 nM | – | –
Cc1cccc(C)c1-c1cc2nc(n1)NS(=O)(=O)c1cccc(c1)C(=O)N1CCN(Cc3ccccc3)CC(O2)C1CC(C)C (single isomer, unassigned) [Compound 94, 18-Benzyl-12-(2,6-dimethylphenyl)-21-(2-methylpropyl)-15-oxa-8λ^6-thia-1,9,11,18,22-pentaazatetracyclo[14.4.1.13,7.110,14]tricosa-3(23),4,6,10(22),11,13-hexaene-2,8,8-trione] | +++ (+++ is >600%) | < 1000 nM | – | –
Cc1cccc(C)c1-c1cc2nc(n1)NS(=O)(=O)c1cccc(c1)C(=O)N1CCN(C(=O)OCc3ccccc3)C[C@H](O2)[C@H]1C (single isomer, unassigned) [Compound 112] | +++ (+++ is >600%) | < 1000 nM | – | –
Cc1cccc(C)c1-c1cc2nc(n1)NS(=O)(=O)c1cccc(c1)C(=O)N1CCN(C(=O)OCc3ccccc3)C[C@@H](O2)[C@H]1C (single isomer, unassigned) [Compound 113] | + (+ is <30%) | 3000 to 30000 nM | – | –
Cc1cccc(C)c1-c1cc2nc(n1)NS(=O)(=O)c1cccc(c1)C(=O)N1Cc3cccnc3[C@H](C1)O2 (single isomer, unassigned) [Compound 196, 12-(2,6-Dimethylphenyl)-15-oxa-8λ^6-thia-1,9,11,18,25-pentaazapentacyclo[14.7.1.13,7.110,14.017,22]hexacosa-3,5,7(26),10(25),11,13,17,19,21-nonaene-2,8,8-trione] | – | – | + (+ is <300%) | –
Cc1cccc(C)c1-c1cc2nc(n1)NS(=O)(=O)c1cccc(c1)C(=O)N1CC3CCCN(C)C3[C@H](C1)O2 (single isomer, unassigned) [Compound 199, 12-(2,6-dimethylphenyl)-18-methyl-15-oxa-8λ^6-thia-1,9,11,18,25-pentaazapentacyclo[14.7.1.13,7.110,14.017,22]hexacosa-3,5,7(26),10(25),11,13-hexaene-2,8,8-trione] | – | – | +++ (+++ is >60%) | < 1000 nM
Cc1cccc(C)c1-c1cc2nc(n1)NS(=O)(=O)c1cccc(c1)C(=O)N1CC3CCCN(C)C3[C@@H](C1)O2 (single isomer, unassigned) [Compound 200, 12-(2,6-dimethylphenyl)-18-methyl-15-oxa-8λ^6-thia-1,9,11,18,25-pentaazapentacyclo[14.7.1.13,7.110,14.017,22]hexacosa-3,5,7(26),10(25),11,13-hexaene-2,8,8-trione] | – | – | + (+ is <300%) | –
Cc1cccc(C)c1-c1cc2nc(n1)NS(=O)(=O)c1cccc(c1)C(=O)N1CC(O2)C2CCCN(C)C2C1 (single isomer, unassigned) [Compound 201, 12-(2,6-Dimethylphenyl)-21-methyl-15-oxa-8λ^6-thia-1,9,11,21,25-pentaazapentacyclo[14.7.1.13,7.110,14.017,22]hexacosa-3,5,7(26),10(25),11,13-hexaene-2,8,8-trione] | ++ (++ is 30-60%) | 3000 to 30000 nM | – | –
